As a reminder, the IC50 is the concentration needed to halve the response being measured.

The target in the experiment is Skeletal Myofibril ATPase (Rabbit Psoas myofibrils). In words: Skeletal Myofibril ATPase Assay. In kind it is biochemical. To be noted: PK/LDH-coupled NADH absorbance at 340 nm. As to the method:
Overview: Myosin ATPase activity was assessed by using a coupled reaction system, in which ADP generated by the myosin ATPase function was coupled to the disappearance of NADH through the pyruvate kinase/lactate dehydrogenase (PK-LDH) system. Myosin ATPase activity produces ADP, which was used as a substrate for PK to produce pyruvate and regenerate ATP. The pyruvate was then used as a substrate by LDH to oxidize NADH to NAD+. The rate of the reaction was monitored through the time-dependent disappearance of NADH using absorbance at 340 nm. Inhibition of ATPase activity by the assayed compounds was indicated by a reduced rate of NADH loss, relative to vehicle-treated controls, over the experimental time window. To assess the selectivity of the assayed compounds for skeletal myofibrils, the compounds were counter-screened in cardiac myofibrils.
Materials: The following stock solutions and reagents were used in the Skeletal Myofibril ATPase Assay:
Stock Solutions of pCa buffer. Combine PIPES, CaCl2, and EGTA solutions with 70 mL of water. Adjust pH to 7.0 and bring final volume to 100 mL.
Buffer A & Buffer B. Buffers were stored on ice until use.
Skeletal Myofibril ATPase Assay Procedure: BSA, ATP, NADH, PEP, and DTT solutions were thawed at room temperature, then transferred to ice. Pellet-frozen myofibrils (approximately twice the required volume) were transferred into a sufficiently large tube and capped. Myofibrils were thawed by rolling in a water bath for approximately 15 min at room temperature and cooled on ice. Buffers A and B were prepared by adjusting volumes as necessary for required number of wells and stored on ice. 0.5 μL of the compounds to be assayed were added into wells of a 384-well plate. Buffers A and B were mixed by inversion immediately prior to use, then 25 μL of each was dispensed using a Multidrop dispenser (Buffer A first, then Buffer B). The absorbance within the wells was measured at 340 nm, using a kinetic protocol in which the wells are read every 1.5-2 min for 1 h. The reaction rate was qualitatively assessed by subtracting the minimum absorbance value from the maximum value for each well, using either the SoftMax Pro plate reader software or a spreadsheet program such as Excel. Using GraphPad Prism 8.0, the data was normalized, with 100% activity defined as the absorbance change in the 1% DMSO vehicle wells and 0% assigned to no change in absorbance over the course of the experiment. The normalized data were fit to a variable-slope four-parameter logistic model, constraining the bottom to be 0 or greater. Compounds of Table 1 to 3 were tested and results of the assay appear in Table 4 herein. A=IC50 is less than or equal to 10 μM; B=IC50 is greater than 10 μM and less than 100 μM; C=IC50 is greater than 100 μM.
Regarding `Cc1ccc(-c2ccc(=O)n(CC(=O)NC3CCCC3)n2)s1` [Compound 39, N-cyclopentyl-2-(3-(5-methylthiophen-2-yl)-6-oxopyridazin-1(6H)-yl)acetamide], the IC50 was 10 to 100 µM.
Then `Cc1ccc(-c2ccc(=O)n(CC(=O)NC(C)C)n2)s1` [Compound 33, N-isopropyl-2-(3-(5-methylthiophen-2-yl)-6-oxopyridazin-1(6H)-yl)acetamide], with no more than 10 µM.
Then `CCNC(=O)Cn1nc(-c2nc(-c3cccc(Cl)c3)cs2)ccc1=O` [Compound 81, 2-(3-(4-(3-chlorophenyl)thiazol-2-yl)-6-oxopyridazin-1(6H)-yl)-N-ethylacetamide], with greater than 100 µM; and `O=C(Cn1nc(-c2cccs2)ccc1=O)Nc1ccc2c(c1)OCCO2` [Compound 46, N-(2,3-dihydrobenzo[b][1,4]dioxin-6-yl)-2-(6-oxo-3-(thiophen-2-yl)pyridazin-1(6H)-yl)acetamide], with greater than 100 µM.
For `Cc1ccc(-c2ccc(=O)n(CC(=O)NCc3ccccc3)n2)s1` [Compound 35, N-benzyl-2-(3-(5-methylthiophen-2-yl)-6-oxopyridazin-1(6H)-yl)acetamide] the value was 10 to 100 µM; for `CCC(C)(C)NC(=O)Cn1nc(-c2ccc(C)s2)ccc1=O` [Compound 82, 2-(3-(5-methylthiophen-2-yl)-6-oxopyridazin-1(6H)-yl)-N-(tert-pentyl)acetamide], no more than 10 µM; for `O=c1ccc(-n2cncn2)nn1Cc1ccc(Cl)cc1` [Compound 79, 2-(4-chlorobenzyl)-6-(1H-1,2,4-triazol-1-yl)pyridazin-3(2H)-one], 10 to 100 µM.
Consider `CCNC(=O)Cn1nc(-c2nnc(C34CC(C3)C4)s2)ccc1=O` [Compound 32, 2-(3-(5-(bicyclo[1.1.1]pentan-1-yl)-1,3,4-thiadiazol-2-yl)-6-oxopyridazin-1(6H)-yl)-N-ethylacetamide], for which the IC50 was no more than 10 µM.
With `CCNC(=O)Cn1nc(-c2nc(-c3cccnc3)no2)ccc1=O` [Compound 13, N-ethyl-2-(6-oxo-3-(3-(pyridin-3-yl)-1,2,4-oxadiazol-5-yl)pyridazin-1(6H)-yl)acetamide], the half-inhibitory concentration (IC50) lay within 10 to 100 µM.
Then `O=c1ccc(-c2cccs2)nn1C/C=C/c1ccccc1` [Compound 62, 2-cinnamyl-6-(thiophen-2-yl)pyridazin-3(2H)-one], with greater than 100 µM.
For `Cc1cccc(-c2noc(-c3ccc(=O)n(Cc4cccnc4C#N)c3)n2)c1` [Compound 112, 3-((2-oxo-5-(3-(m-tolyl)-1,2,4-oxadiazol-5-yl)pyridin-1(2H)-yl)methyl)picolinonitrile] the value was greater than 120 µM; for `O=C(Cn1nc(-c2cccs2)ccc1=O)Nc1ccc2cc[nH]c2c1` [Compound 48, N-(1H-indol-6-yl)-2-(6-oxo-3-(thiophen-2-yl)pyridazin-1(6H)-yl)acetamide], greater than 100 µM; for `O=C(Cn1nc(-c2nnc(-c3cccc(Cl)c3)s2)ccc1=O)NC1CCC1` [Compound 23, 2-(3-(5-(3-chlorophenyl)-1,3,4-thiadiazol-2-yl)-6-oxopyridazin-1(6H)-yl)-N-cyclobutylacetamide], no more than 10 µM.
Molecule `O=C(Cn1nc(-c2nnc(-c3ccccn3)s2)ccc1=O)NC1CCC1` [Compound 22, N-cyclobutyl-2-(6-oxo-3-(5-(pyridin-2-yl)-1,3,4-thiadiazol-2-yl)pyridazin-1(6H)-yl)acetamide] came in with an IC50 of no more than 10 µM.
Then `O=c1ccc(-c2nnc(-c3cccc(Cl)c3)o2)nn1Cc1ccccc1` [Compound 73, 2-benzyl-6-(5-(3-chlorophenyl)-1,3,4-oxadiazol-2-yl)pyridazin-3(2H)-one], with no more than 10 µM; and `Cc1cccc(-c2noc(-c3ccc(=O)n(Cc4cccnc4)c3)n2)c1` [Compound 84, 1-(pyridin-3-ylmethyl)-5-(3-(m-tolyl)-1,2,4-oxadiazol-5-yl)pyridin-2(1H)-one], with no more than 10 µM; and `O=c1ccc(-c2nc(-c3cccc(F)c3)no2)cn1Cc1cccnc1` [Compound 102, 5-(3-(3-fluorophenyl)-1,2,4-oxadiazol-5-yl)-1-(pyridin-3-ylmethyl)pyridin-2(1H)-one], with no more than 10 µM.
Then `O=c1ccc(-c2nc(-c3cnccn3)no2)cn1Cc1ccccc1F` [Compound 116, 1-(2-fluorobenzyl)-5-(3-(pyrazin-2-yl)-1,2,4-oxadiazol-5-yl)pyridin-2(1H)-one], with greater than 120 µM; and `CCNC(=O)Cn1nc(-c2nc(-c3cc(F)cc(F)c3)no2)ccc1=O` [Compound 9, 2-(3-(3-(3,5-difluorophenyl)-1,2,4-oxadiazol-5-yl)-6-oxopyridazin-1(6H)-yl)-N-ethylacetamide], with no more than 10 µM; and `O=c1ccc(-c2nc(-c3cccnc3)no2)nn1Cc1ccccc1` [Compound 67, 2-benzyl-6-(3-(pyridin-3-yl)-1,2,4-oxadiazol-5-yl)pyridazin-3(2H)-one], with 10 to 100 µM.
In turn, `COCCn1nc(-c2nc(-c3ccc(F)c(C)c3)no2)ccc1=O` [Compound 74, 6-(3-(4-fluoro-3-methylphenyl)-l,2,4-oxadiazol-5-yl)-2-(2-methoxyethyl)pyridazin-3(2H)-one] had an IC50 of 10 to 100 µM.
The molecule `CCNC(=O)Cn1nc(-c2nc(-c3ccccc3)no2)ccc1=O` [Compound 16, N-ethyl-2-(6-oxo-3-(3-phenyl-1,2,4-oxadiazol-5-yl)pyridazin-1(6H)-yl)acetamide] displayed a concentration for half-maximal inhibition (IC50) of no more than 10 µM.
Then `O=c1ccc(-c2nc(-c3ccc(F)cc3)no2)cn1Cc1cccnc1` [Compound 104, 5-(3-(4-fluorophenyl)-1,2,4-oxadiazol-5-yl)-1-(pyridin-3-ylmethyl)pyridin-2(1H)-one], with no more than 10 µM; and `CCNC(=O)Cn1nc(-c2noc(-c3cccc(Cl)c3)n2)ccc1=O` [Compound 31, 2-(3-(5-(3-chlorophenyl)-1,2,4-oxadiazol-3-yl)-6-oxopyridazin-1(6H)-yl)-N-ethylacetamide], with no more than 10 µM.
Then `O=c1ccc(-c2nc(-c3cncc(F)c3)no2)cn1Cc1cccnc1` [Compound 108, 5-(3-(5-fluoropyridin-3-yl)-1,2,4-oxadiazol-5-yl)-1-(pyridin-3-ylmethyl)pyridin-2(1H)-one], with 10 to 100 µM; and `O=c1ccc(-c2nc(-c3cccc(F)c3)no2)cn1Cc1cncnc1` [Compound 106, 5-(3-(3-fluorophenyl)-1,2,4-oxadiazol-5-yl)-1-(pyrimidin-5-ylmethyl)pyridin-2(1H)-one], with no more than 10 µM.
For `O=C(Cn1nc(-c2cccs2)ccc1=O)Nc1ccccc1F` [Compound 41, N-(2-fluorophenyl)-2-(6-oxo-3-(thiophen-2-yl)pyridazin-1(6H)-yl)acetamide] the value was 10 to 100 µM; for `O=c1ccc(-c2nc(-c3ccncc3)no2)cn1Cc1ccc(Cl)cc1` [Compound 119, 1-(4-chlorobenzyl)-5-(3-(pyridin-4-yl)-1,2,4-oxadiazol-5-yl)pyridin-2(1H)-one], greater than 120 µM; for `Cc1cccc(-c2noc(-c3ccc(=O)n(Cc4nnc(C)o4)c3)n2)c1` [Compound 100, 1-((5-methyl-1,3,4-oxadiazol-2-yl)methyl)-5-(3-(m-tolyl)-1,2,4-oxadiazol-5-yl)pyridin-2(1H)-one], no more than 10 µM.
Consider `O=C(Cn1nc(-c2ccco2)ccc1=O)NCc1ccccc1F` [Compound 53, N-(2-fluorobenzyl)-2-(3-(furan-2-yl)-6-oxopyridazin-1(6H)-yl)acetamide], for which the IC50 is greater than 100 µM.
Then `Cc1cc(Cn2nc(-c3nc(-c4cccc(Cl)c4)no3)ccc2=O)on1` [Compound 63, 6-(3-(3-chlorophenyl)-1,2,4-oxadiazol-5-yl)-2-((3-methylisoxazol-5-yl)methyl)pyridazin-3(2H)-one], with no more than 10 µM; and `COc1ccc(NC(=O)Cn2nc(-c3cccs3)ccc2=O)cc1` [Compound 45, N-(4-methoxyphenyl)-2-(6-oxo-3-(thiophen-2-yl)pyridazin-1(6H)-yl)acetamide], with 10 to 100 µM; and `O=C(Cn1nc(-c2cccs2)ccc1=O)Nc1ccc(Cl)cc1Cl` [Compound 42, N-(2,4-dichlorophenyl)-2-(6-oxo-3-(thiophen-2-yl)pyridazin-1(6H)-yl)acetamide], with greater than 100 µM.
For `Cc1cccc(-c2noc(-c3ccc(=O)n(Cc4cncc(Cl)c4)c3)n2)c1` [Compound 90, 1-((5-chloropyridin-3-yl)methyl)-5-(3-(m-tolyl)-1,2,4-oxadiazol-5-yl)pyridin-2(1H)-one] the value was no more than 10 µM.

These data come from patent publication US12643892B2, “Pyridazinone compounds for the treatment of neuromuscular diseases” (Edgewise Therapeutics, Inc., priority 2020, dated 2026).
